Marks after values point to notes of the source that are not given here.
Columns and labels:
Format in all cases: cell-based
[1] = test system: Escherichia coli (ATCC 25922); experiment: Antimicrobial activity, minimum bactericidal/biocidal concentration; conditions: E. coli 25922, pH 4 (Sal), 1 h
Procedure: (§1) To determine antimicrobial activity, we use Escherichia coli (ATCC 25922), Staphylococcus aureus (ATCC 29213), Pseudomonas aeruginosa (ATCC 27853), and Candida albicans (ATCC 10231) in primary screening. In addition, we use Staphylococcus aureus (MCC 91731), Pseudomonas aeruginosa (MCC 4438), and Candida albicans (MCC 50319), provided by Alcon Laboratories, Fort Worth, Tex. The microbial cultures are diluted in sterile saline pH 4 to prepare inocula. Test compounds are titrated by stepwise two-fold dilutions in sterile saline pH 4, 1.0×10^5 to 1.0×10^6 Colony Forming Units (CFU)/mL bacteriamicrobe is added to each tube, mixed by gentle vortexing, and then incubated at room temperature for 1 h. Bacterial plating on Petri dishes (Tryptic Soy agar or Saboraud's Dextrose agar) is performed immediately after the designated exposure after neutralization of the test article dilutions in Dey-Engley Broth. Plates are incubated at 37° C., and the numbers of bacteria are counted by direct colony count to quantitate the surviving bacteria as CFU/mL. Positive growth controls are made with sterile 0.9% saline. All compounds are tested three times. The results are tabulated to show the comparison of antimicrobial effectiveness range of the compounds.

[2] = test system: Staphylococcus aureus (ATCC 29213); experiment: as above; conditions: S. aureus 29213, pH 4 (Sal), 1 h
Procedure: as §1

[3] = test system: Candida albicans (ATCC 10231); experiment: Antimicrobial activity, minimum biocidal concentration; conditions: C. albicans 10231, pH 4 (Sal), 1 h
Procedure: as §1

[4] = test system: Staphylococcus aureus (MCC 91731); experiment: as above; conditions: S. aureus MCC 91731 (*), 1 h
Procedure: as §1, with “Test compounds are titrated by stepwise two-fold dilutions in sterile saline pH 4, 1.0×10^5 to 1.0×10^6 Colony Forming Units (CFU)/mL bacteriamicrobe is added to each tube, mixed by gentle vortexing, and then incubated at room temperature for 1 h.” left out

[5] = test system: Pseudomonas aeruginosa (MCC 4438); experiment: as above; conditions: P. aeruginosa MCC 4438 (#), 1 h
Procedure: as §1, with “[…] […]” for “The microbial cultures are diluted in sterile saline pH 4 to prepare inocula. Test compounds are titrated by stepwise two-fold dilutions in sterile saline pH 4, 1.0×10^5 to 1.0×10^6 Colony Forming Units (CFU)/mL bacteriamicrobe is added to each tube, mixed by gentle vortexing, and then incubated at room temperature for 1 h.”

[6] = Concentration dependence of antimicrobial activity; conditions: 0.9% saline at pH 3.5
Description: (§2) The results of our discovery provide support for antimicrobial activity of 3-(4-chlorophenyl)-2-(dichloroamino)-2-methylpropane-1-sulfonic acid in 0.9% saline at pH 3.5. […] In contrast, cell toxicity is seen at a 1000-fold higher range in the mM range.

[7] = test system: cells; experiment: Cell toxicity, XTT assay
Description: as §2

[8] = test system: Candida albicans (MCC 50319); experiment: Antimicrobial activity, minimum biocidal concentration; conditions: C. albicans MCC 50319 (+), 1 h
Procedure: as §1, with “[…] […]” for “The microbial cultures are diluted in sterile saline pH 4 to prepare inocula. Test compounds are titrated by stepwise two-fold dilutions in sterile saline pH 4, 1.0×10^5 to 1.0×10^6 Colony Forming Units (CFU)/mL bacteriamicrobe is added to each tube, mixed by gentle vortexing, and then incubated at room temperature for 1 h.”

[9] = test system: mouse fibroblast cells (ATCC CCL-1, L929); experiment: Cytotoxicity, WST-8 colorimetric assay; conditions: 60 min exposure
Procedure: Cytotoxicity is assessed by a colorimetric assay system using the Dojindo™ cell counting kit containing 2-(2-methoxy-4-nitrophenyl)-3-(4-nitrophenyl)—S—(2,4-disulfophenyl)-2H-tetrazolium, monosodium salt (WST-8). In this assay, the WST-8 reagent is bioreduced by cellular dehydrogenases to a formazan product that is highly soluble in tissue culture medium. The orange formazan, which is produced only by live cells, is a direct measure of cell viability and can be read spectrophotometrically (for example, evaluation of a soluble tetrazolium/formazan assay for cell growth and drug sensitivity in culture using human and other tumor cell lines is described by Scudiero D A, Shoemaker R A H, Paul K D, Monks A, Tierney S, Nofziger T H, Currens M J, Seniff D, Boyd M R. Cancer Res. 1988 Sep. 1; 48(17):4827-33). Similar approaches for determining the cell viability are known in the art.
In a standard assay, mouse fibroblast cells (ATCC CCL-1, L929), are cultured in Minimum Essential Medium, α-medium supplemented with 10% heat inactivated fetal bovine serum, L-glutamine, penicillin and streptomycin. Cells are trypsinized and counted under the microscope and seeded at 1.5×10^4 total cells per 100 μL per well of a flat-bottom 96-well plate in order to achieve ˜80% confluence after overnight incubation at 37° C. On the day of the assay, the tissue culture medium is removed and replaced with 30 μL of fresh medium.
Test articles are prepared as 2-fold serial dilutions and 170 μL, of each dilution is added into each of 4-wells (total volume per well=200 μL). The test plate is then returned to the 37° C. incubator for 60 min. Immediately after the exposed time, test article from each well is replaced with 200 μL of fresh media. Plates are incubated at 37° C. for 18-20 hours. The following day growth medium is replaced with 100 μL/well of fresh medium containing 10/100 μL WST-8 reagent. Cells are incubated under growth conditions (5% CO2 at 37° C. humidified incubator), protected from light, until color development is achieved (usually 1-4 hours). Absorbance is read at 450 nm with reference wavelength at 750 nm using Molecular Device SpectraMax M5 plate reader. Untreated or vehicle only treated cells receiving WST-8 reagent serve as positive cell proliferation controls.
The CT50 value for each compound was calculated from the absorbance values (A450-750) and is defined as the concentration of test article that results in survival of 50% of the cells following treatment. The absorbance A450-750 from each well of untreated cells and from each well within the dilution series was measured. To calculate the CT50 for each compound, all compound concentrations were first log-transformed using GraphPad Prism4 (ver 4.03) software. Next, a non-linear regression (curve fit) analysis was performed on all the absorbance data measured from the dilution series, including the absorbance data obtained from wells of the untreated control cells. For each dilution within the dilution series, an average A450-750 was calculated from the four replicate wells. The average A450-750 data were plotted on a y-axis against the log-transformed compound concentration on the x-axis, and the CT50 value calculated from the resulting best-fit curve.

Row | Compound | Minimum Biocidal Concentration (MBC) (≧99.9% kill) [1] | Minimum Biocidal Concentration (MBC) (≧99.9% kill) [2] | Minimum Biocidal Concentration (MBC) (≧99.9% kill) [3] | Minimum Biocidal Concentration (MBC) (≧99.9% kill) ([4]; pH 4 (Sal)) | Minimum Biocidal Concentration (MBC) (≧99.9% kill) ([5]; pH 4 (Sal)) | CT50 (concentration that results in survival of 50% of the cells) ([9]; pH 4 (Sal)) | other results
1 | CC(=O)N1CCC(CS(=O)(=O)O)(N(Cl)Cl)CC1 [Compound 637, (1-Acetyl-4-(dichloroamino)piperidin-4-yl)methanesulfonic acid] | 16 µg/mL | 4 µg/mL | 128 µg/mL |  |  |  | 
2 | CC(C)(CC(=O)OCCS(=O)(=O)O)N(Cl)Cl [Compound 628, 2-(3-(Dichloroamino)-3-methylbutanoyloxy)ethanesulfonic acid] | 2 µg/mL | 2 µg/mL | 64 µg/mL |  |  |  | 
3 | CNS(=O)(=O)CC(C)(C)N(Cl)Cl [Compound 626, 2-(Dichloroamino)-N,2-dimethylpropane-1-sulfonamide] | 4 µg/mL | 0.5 µg/mL | 8 µg/mL |  |  |  | 
4 | CC(C)(CS(=O)(=O)CCS(=O)(=O)O)N(Cl)Cl [Compound 630, 2-(2-(Dichloroamino)-2-methylpropylsulfonyl)ethanesulfonic acid] | 4 µg/mL | 8 µg/mL | 64 µg/mL |  |  |  | 
5 | O=S(=O)(O)CC1(N(Cl)Cl)CCCCCC1 [Compound 601, (1-(Dichloroamino)cycloheptyl)methanesulfonic acid] |  |  |  | 0.25* μg/mL | 0.5# μg/mL |  | 
6 | CC(Cc1ccc(Cl)cc1)(CS(=O)(=O)O)N(Cl)Cl (stereo not shown) [Compound 570, 3-(4-chlorophenyl)-2-(dichloroamino)-2-methylpropane-1-sulfonic acid] |  |  |  |  |  |  | antimicrobial activity [6]: considerable in a μM range; cell toxicity range relative to antimicrobial range [7]: 1000 fold; tolerance of treatment, cell proliferation versus untreated control cells ([7]; XTT assay): able to tolerate the treatment and be able to go through normal cell proliferation cycles
7 | CC(C)(COC(=O)CCS(=O)(=O)O)N(Cl)Cl [Compound 614, 3-(2-(Dichloroamino)-2-methylpropoxy)-3-oxopropane-1-sulfonic acid] |  |  |  | 1* μg/mL | 4# μg/mL | 0.43 mM | Minimum Biocidal Concentration (MBC) (≧99.9% kill) ([4]; pH 7 (PBS)): 128* μg/mL; Minimum Biocidal Concentration (MBC) (≧99.9% kill) ([8]; pH 4 (Sal)): 4+ μg/mL; Minimum Biocidal Concentration (MBC) (≧99.9% kill) ([8]; pH 7 (PBS)): 512+ μg/mL; Minimum Biocidal Concentration (MBC) (≧99.9% kill) ([5]; pH 7 (PBS)): 256# μg/mL; CT50 (concentration that results in survival of 50% of the cells) ([9]; pH 7 (PBS)): 4.6 mM
8 | CC1(N(Cl)Cl)CCCCC1S(=O)(=O)O (stereo not shown) [Compound 611, 2-(Dichloroamino)-2-methylcyclohexane-1-sulfonic acid] |  |  |  | 1* μg/mL | 1# μg/mL | 0.25 mM | Minimum Biocidal Concentration (MBC) (≧99.9% kill) ([4]; pH 7 (PBS)): 64* μg/mL; Minimum Biocidal Concentration (MBC) (≧99.9% kill) ([8]; pH 4 (Sal)): 0.5+ μg/mL; Minimum Biocidal Concentration (MBC) (≧99.9% kill) ([8]; pH 7 (PBS)): 64+ μg/mL; Minimum Biocidal Concentration (MBC) (≧99.9% kill) ([5]; pH 7 (PBS)): 32# μg/mL; CT50 (concentration that results in survival of 50% of the cells) ([9]; pH 7 (PBS)): 4.6 mM
9 | CC(C)(CS(=O)(=O)O)C(=O)OCC(C)(C)N(Cl)Cl [Compound 625, 3-(2-(Dichloroamino)-2-methylpropoxy)-2,2-dimethyl-3-oxopropane-1-sulfonic acid] | 4 µg/mL | 8 µg/mL | 16 µg/mL |  |  | 2.6 mM | 
10 | CC(=O)NS(=O)(=O)CC(C)(C)N(Cl)Cl [Compound 627, N-(2-(Dichloroamino)-2-methylpropylsulfonyl)acetamide] | 2 µg/mL | 1 µg/mL | 64 µg/mL |  |  |  | 

— US8415497B2, “N-halogenated amino compounds and derivatives” (Novabay Pharmaceuticals, Inc., priority 2006, dated 2013)
